Reference: PMC12029992, “Beyond-Rule-of-Five Compounds Are Not Different: In Vitro–In Vivo Extrapolation of Female CD-1 Mouse Clearance Based on Merck Healthcare KGaA Compound Set” (Pharmaceuticals, 2025)
Where two headings read alike, the source gives them in different places.

Key:
[1] = Determination of CLint in mouse hepatocytes (hepatocyte stability); type: in vitro ADME; conditions: female CD-1 mouse hepatocytes
Method: Hepatocyte stability was assessed, as described previously, on a liquid handling platform (Hamilton Microlab Vantage, Bonaduz, Switzerland) using cryopreserved pooled female CD-1 mouse hepatocytes in suspension. Viability was determined in a Neubauer chamber by trypan blue staining and was always above 70%. Compounds (1 µM final) were incubated with hepatocytes at a cell density of 0.2 × 10^6 cells/mL in Krebs–Henseleit buffer (pH 7.4). […] Incubations were carried out in duplicate at 37 °C under an atmosphere of 5% CO2 and 95% humidity. Aliquots were taken at time points of 0, 10, 20, 40, 60, and 90 min and quenched with a two-fold volume of an ACN solution containing 1.5 µM of an internal standard. The supernatants were further diluted to a ratio of 1:3 (v/v) with supernatants from other compound incubations for bioanalytical cocktailing designed to avoid analytical interference. The samples were analyzed by UHPLC-MS/MS (for details, see the Supplementary Materials).
For quantitation with the Analyst software (version 1.7.2), MS peak area ratios of the compounds and an internal standard were calculated and transformed to nanomolar concentrations determined based on a four-point calibration comprising 1.2% to 150% of the incubation concentration. Calibration standards were prepared using heat-inactivated (60 °C for at least 15 min) hepatocytes as a biomatrix and processed in duplicate, as described for the test samples.
For data analysis, the concentration data were plotted against the incubation time, the first-order kel was determined by non-linear regression using Biorails version 5.10.22/Morphit version 8.0 (The Edge Software Consultancy, Guildford, UK), and CLint values (expressed in µL/min/10^6 cells) were obtained by normalizing kel with the hepatocyte concentration.

female CD-1 mouse = experiment: Pharmacokinetic studies in mice (IV clearance); type: in vivo; conditions: for in vivo obs. CL,b: blood clearance; for in vivo obs. CLint,b: blood intrinsic clearance; for in vivo obs. CLint,b,u: unbound blood intrinsic clearance
Method: Pharmacokinetic studies were carried out after approval by the internal animal welfare board and in compliance with the local and international animal welfare regulations similarly to a method described previously. Generally, three or twelve CD-1 mice per study were dosed intravenously (0.2–1 mg/kg) using solution vehicles, predominantly 40% PEG 200 in 1% DMSO. For the majority of the studies, blood samples were taken retro-orbitally under inhalation of anesthesia (0.1, 0.5, 1, 2, 4, 6, and 24 h). For the remaining studies, blood sampling was performed both retro-orbitally (0.1, 0.5, 1, 2, and 24 h) and from the saphenous vein (4 and 6 h) (N = 51), from the dorsal metatarsal vein (N = 34), or submandibularly (N = 12). Plasma was obtained by centrifugation (10,000× g; 4 °C; 5 min) and stored at −20 °C until UHPLC-MS/MS analysis. By the addition of an ACN solution containing internal standard, the proteins were precipitated and dissevered by centrifugation. The concentration of the respective molecules studied was determined by a standard UHPLC-MS/MS method (generic method similar to the method described for the determination of CLint using experimentally determined compound MS tuning parameters). Plasma concentrations were determined for each time point sampled. Clearance was estimated from the AUC by non-compartmental analysis, which was performed using WinNonlin® (Princeton, NJ, USA). The geometric mean was used when more than one clearance value from different studies was available.
CLp/Rb observed CLint,b=QH∗obs. CL,b/QH−obs. CL,b
All unbound clearance terms were calculated by dividing the respective clearance by fu,p. predicted/observed CL,b,u=pred./obs. CL,b/fu,p

Caco-2 cells (TC7 clone) = experiment: Caco-2 assay (permeability, efflux ratio); type: in vitro ADME
Method: Reagents and Materials: Phosphate Buffer 20mM pH 7.4: EMS, Art No. 11601-40; DMSO Merck Art. No. 102950; Acetonitrile Merck, Art. No. 100030, Methanol Merck Art. No.
106007; Formic Acid Merck Art.No.100264; Acetonitrile Merck Art. No.10030; Filtration Plate Millipore MultiScreen HTS HV 0.45uM; 96 Well Millipore Art. No. MSHVN4510; Column Waters XBridge Column C8 3.5μm (Waters Cat. No. 186003053); HPLC vials VWR Cat. No. 5480028; Micro-Inserts VWR Cat. No. 548-0006; Screw caps VWR Cat. No.
The Caco-2 assays were performed in a transwell assay setup using Caco-2 cells (TC7 clone). The Caco-2 cells were seeded into the apical wells (125000 cells per well) in DMEM (Dulbecco’s Modified Eagle’s Medium) with 20% FBS (fetal bovine serum) into Corning 24-well transwell plates and cultured for 14-21 days. Prior to the experiment, the plates were washed with HBSS (Hanks' Balanced Salt Solution). Apparent permea-bility Papp was determined from apical-to-basolateral (Papp,AB) by adding 1 […] in HBSS into the apical compartment and HBSS in the basolateral compart-ment, and vice versa for Papp,BA from basolateral-to-apical. Apical volumes were 250 μL, basolateral volumes were 750 μL. DMSO content was <1 % (v/v) in all wells. Monolayer tightness was controlled using melagatran as tightness marker.
Samples were taken from both compartments at timepoint t0 and after 2 hours incuba-tion at 37 °C in 5% CO2 and 100% humidity, and analyzed via UHPLC-MS/MS. The ap-parent permeability Papp was calculated as follows:
P௔௣௣ = Δc௥௘௖Δt∙ V௥௘௖A x cௗ௢௡,଴
Where ∆crec/∆t is the change of concentration in the receiver compartment over the incu-bation time (i.e. 2 hours), Vrec is volume of the receiver compartment, cdon,0 is the concen-tration in the donor compartment at time t0, and A is the surface of the membrane on which the cells grew (i.e. 0.33 cm²).
Mass balance was checked after the experiment by determining the recovery after the […]
Recovery = nௗ௢௡,௘௡ௗ + nௗ௢௡,௥௘௖= cௗ௢௡,௘௡ௗ ∙Vௗ௢௡ + c௥௘௖ ,௘௡ௗ ∙V௥௘௖
The efflux ratio (ER) describes affinity towards efflux transporters:
The geometric mean of Papp,AB and Papp,BA was used as passive permeability Papp,pass.

SMILES | Hepatocyte CLint [1] [µl/min/1e6 cells] | in vivo obs. CL,b (female CD-1 mouse) [mL/min/kg] | in vivo obs. CLint,b (female CD-1 mouse) [mL/min/kg] | in vivo obs. CLint,b,u (female CD-1 mouse) [mL/min/kg] | CaCo-2 Efflux ratio ER (Caco-2 cells (TC7 clone)) | CaCo-2 Papp Passive (Caco-2 cells (TC7 clone); apparent passive permeability) | CaCo-2 Efflux ratio ER (Caco-2 cells (TC7 clone); Caco-2) | CaCo-2 Papp Passive (Caco-2 cells (TC7 clone); Caco-2)
COc1cccc(OCCCN)c1-c1cc(Nc2cnc(C#N)cn2)n[nH]1 [MSC020] | 70.5 | 77.00 | 317.36 | 1652.94 | 48.4 | 2.67 10e-6 cm/s |  | 
O=C(O)c1cc(-c2ccc(F)cc2F)ccc1O [MSC001] | 11.9 | 2.83 | 2.91 | 170.57 | 2.6 | 25.85 10e-6 cm/s |  | 
CNC(=O)c1cc(Oc2ccc3nc(N[C@@H]4CCCC[C@H]4O)sc3c2)ccn1 [MSC003] | 16.5 | 6.38 | 6.81 | 89.15 | 1.4 | 31.60 10e-6 cm/s |  | 
N#Cc1c[nH]c2c(C(=O)N3CCN(CCc4ccc(F)cc4)CC3)cccc12 [MSC213] | 222.1 | 63.61 | 169.91 | 3658.76 |  |  | 1.0 | 24.10 10e-6 cm/s
